Test results published in the supplement of paper PMC13380429.

Assays:
Settings in all cases: 72 h
[1] = tested on: U2OS; assay: relative viability EC50 (midpoint between 100% and the lowest measured viability); higher = less toxic
[2] = tested on: Vero E6; assay: as above
[3] = tested on: HepG2; assay: as above
[4] = tested on: Caco-2; assay: as above
[5] = tested on: U2OS; assay: drug sensitivity score (DSS) for viability; higher = more toxic; extreme values may be limits of the assay
[6] = tested on: Vero E6; assay: as above
[7] = tested on: HepG2; assay: as above
[8] = tested on: Caco-2; assay: as above
[9] = tested on: U2OS; assay: cell viability relative to DMSO; higher = less toxic
[10] = tested on: Vero E6; assay: as above
[11] = tested on: HepG2; assay: as above
[12] = tested on: Caco-2; assay: as above
[13] = tested on: Calu-3; assay: relative viability EC50 (midpoint between 100% and the lowest measured viability); higher = less toxic
[14] = tested on: Calu-3; assay: drug sensitivity score (DSS) for viability; higher = more toxic; extreme values may be limits of the assay
[15] = tested on: Calu-3; assay: cell viability relative to DMSO; higher = less toxic

Structure (SMILES)	relative viability EC50 [1] [µM]	relative viability EC50 [2] [µM]	relative viability EC50 [3] [µM]	relative viability EC50 [4] [µM]	drug sensitivity score [5]	drug sensitivity score [6]	drug sensitivity score [7]	drug sensitivity score [8]	cell viability ([9]; 1 nM) [%]	cell viability ([9]; 10 nM) [%]	cell viability ([9]; 100 nM) [%]	cell viability ([9]; 1000 nM) [%]	cell viability ([9]; 10000 nM) [%]	cell viability ([10]; 1 nM) [%]	cell viability ([10]; 10 nM) [%]	cell viability ([10]; 100 nM) [%]	cell viability ([10]; 1000 nM) [%]	cell viability ([10]; 10000 nM) [%]	cell viability ([11]; 1 nM) [%]	cell viability ([11]; 10 nM) [%]	cell viability ([11]; 100 nM) [%]	cell viability ([11]; 1000 nM) [%]	cell viability ([11]; 10000 nM) [%]	cell viability ([12]; 1 nM) [%]	cell viability ([12]; 10 nM) [%]	cell viability ([12]; 100 nM) [%]	cell viability ([12]; 1000 nM) [%]	cell viability ([12]; 10000 nM) [%]	relative viability EC50 [13] [µM]	drug sensitivity score [14]	cell viability ([15]; 1 nM) [%]	cell viability ([15]; 10 nM) [%]	cell viability ([15]; 100 nM) [%]	cell viability ([15]; 1000 nM) [%]	cell viability ([15]; 10000 nM) [%]
O=C(/C=C/c1ccccc1)NCCO [brolitene]	> 10	> 10	> 10	> 10	0	0	0	0	107	109	102	104	99.2	104	103	99.4	104	100	107	104	99.3	98	102	102	103	95	93.5	95	–	–	–	–	–	–	–
CC(CCc1ccccc1)NC(C)C(O)c1ccc(O)cc1 (stereo not drawn) [buphenine]	> 10	–	> 10	> 10	0	–	0.1	0	101	100	100	94.6	99.1	–	–	–	–	–	98.8	100	95.9	89.7	91.3	90.4	102	92.2	92.5	90	> 10	0	108	106	99.3	104	110
O=C(O)c1cn(C2CC2)c2cc(N3CCNCC3)c(F)cc2c1=O [ciprofloxacin]	> 10	> 10	> 10	> 10	0	0	0	0.4	100	97.8	98	96.4	103	102	97.8	102	91.8	97.1	106	104	114	78.1	99.8	112	100	108	112	79.1	–	–	–	–	–	–	–
CC[C@H]1OC(=O)[C@H](C)[C@@H](O[C@H]2C[C@@](C)(OC)[C@@H](O)[C@H](C)O2)[C@H](C)[C@@H](O[C@@H]2O[C@H](C)C[C@H](N(C)C)[C@H]2O)[C@](C)(OC)C[C@@H](C)C(=O)[C@H](C)[C@@H](O)[C@]1(C)O [clarithromycin]	> 10	–	> 10	> 10	0	–	0	0	99.3	102	102	96.1	98.7	–	–	–	–	–	104	104	108	98	99.8	102	103	112	100	90.7	> 10	0	93.1	107	94.5	104	99.5
N#Cc1ccc(Oc2ccc3c(c2)COB3O)cc1 [crisaborole]	–	> 10	> 10	> 10	–	0	0	0	–	–	–	–	–	103	105	101	102	98.1	106	105	112	104	95.8	104	104	107	98.8	101	> 10	0	89.8	94.6	96.7	94.3	108
C=C1CCN([C@H](C)[C@](O)(Cn2cncn2)c2ccc(F)cc2F)CC1 [efinaconazole]	> 10	–	> 10	> 10	0	–	0	1.7	99.2	101	96.2	103	96.1	–	–	–	–	–	102	98.3	92.4	95.9	91.5	96.9	98.3	100	91.8	78.3	> 10	0	88	99.3	94.7	96.9	91.4
CNC(=O)c1c(I)c(NC(C)=O)c(I)c(C(=O)O)c1I [iothalamic-acid-d3]	> 10	–	> 10	> 10	0	–	0	0	99.6	109	104	106	103	–	–	–	–	–	107	101	107	94.9	100	91.8	91.5	87.6	94.5	102	> 10	0.1	94.6	99	80.3	102	85.2
COc1ccc2[nH]cc(CCNC(C)=O)c2c1 [melatonin]	–	–	–	> 10	–	–	–	0	–	–	–	–	–	–	–	–	–	–	–	–	–	–	–	107	88.8	101	102	99.5	> 10	0	101	105	96.8	109	105
CC1CCN(CCCC(=O)c2ccc(F)cc2)CC1 [melperone]	> 10	> 10	> 10	> 10	0	0	0	0	99.4	98.6	95.5	100	93.7	100	98	98.9	93	100	104	96.5	102	99.7	101	99.3	103	98.3	93.5	89.9	–	–	–	–	–	–	–
O=S(=O)(O)CCS [mesna]	–	> 10	–	> 10	–	0	–	0	–	–	–	–	–	103	102	107	98.5	101	–	–	–	–	–	114	102	104	97.2	104	> 10	0	98.4	91.8	104	95.9	103
CCOC(=O)CC(=O)N1CCSC1COc1ccccc1OC (stereo not drawn) [moguisteine]	–	> 10	> 10	> 10	–	0	0	0	–	–	–	–	–	99.7	101	100	105	105	93.7	97	99.2	112	104	98.6	98.3	96.3	105	98.4	> 10	0	99.2	103	99.3	97.6	92.8
Cc1cn(-c2cc(NC(=O)c3ccc(C)c(Nc4nccc(-c5cccnc5)n4)c3)cc(C(F)(F)F)c2)cn1 [nilotinib]	–	> 10	–	> 10	–	0	–	0	–	–	–	–	–	107	98.2	103	103	106	–	–	–	–	–	101	114	97.9	106	88.1	> 10	0	98.8	106	111	90.1	100
CN[C@H](CC(C)C)C(=O)N[C@H]1C(=O)N[C@@H](CC(N)=O)C(=O)N[C@H]2C(=O)N[C@H]3C(=O)N[C@H](C(=O)N[C@H](C(=O)O)c4cc(O)cc(O)c4-c4cc3ccc4O)[C@H](O[C@H]3C[C@](C)(N)[C@@H](O)[C@H](C)O3)c3ccc(c(Cl)c3)Oc3cc2cc(c3O[C@@H]2O[C@H](CO)[C@@H](O)[C@H](O)[C@H]2O[C@H]2C[C@](C)(NCc3ccc(-c4ccc(Cl)cc4)cc3)[C@@H](O)[C@H](C)O2)Oc2ccc(cc2Cl)[C@H]1O [oritavancin]	> 10	> 10	> 10	> 10	0	0	0	0	102	100	103	96.5	102	108	113	93.2	106	95.7	104	106	98.9	104	105	97.2	97.7	98	90.4	102	–	–	–	–	–	–	–
CC(C)=CCC/C(C)=C/CC/C(C)=C/C=C/C(C)=C/C(=O)O [peretinoin]	–	> 10	> 10	> 10	–	0	0	0	–	–	–	–	–	101	96.1	106	93.3	104	101	94.3	90.9	103	104	104	98.9	101	97.9	102	> 10	0	107	104	105	114	97.6
O=C1c2cc(Cl)ccc2OC2CCON12 (stereo not drawn) [seclazone]	> 10	> 10	> 10	> 10	0	0	0	0	106	96.7	101	105	100	90	98.2	92.7	95.2	102	102	108	94.8	97.8	107	108	86.3	91	97.4	99.2	–	–	–	–	–	–	–
COc1cc(NS(=O)(=O)c2ccc(N)cc2)nc(OC)n1 [sulphadimethoxine]	–	> 10	> 10	> 10	–	0	0	0	–	–	–	–	–	100	97.8	98.8	103	97.5	106	108	122	98.9	105	109	99.9	103	100	99.9	> 10	0	103	90.3	91.8	98.9	94
S=P(N1CC1)(N1CC1)N1CC1 [thiotepa]	–	> 10	> 10	> 10	–	0	0	0	–	–	–	–	–	108	98.9	106	97.3	102	104	96.6	102	100	107	94.7	101	94.8	98.5	91.1	> 10	0	91.8	95.7	97.5	90.2	89.5
